Like-named read-outs stand apart in the source and are kept apart here.
Assays:
MCF-7 [1] = test: MTT cell viability assay, MCF-7; format: cell-based, human; conditions: for IC50: Homo sapiens
Procedure: (§1) MTT assays were performed as previously described. […] After incubation time, medium was replaced by MTT (solution of 5 mg/mL 3-(4,5-dimethylthiazol-2-yl)-2,5-diphenyl-tetrazoliumbromidin in phosphate buffered saline, Serva, Heidelberg, Germany).

T47D [2] = test: MTT cell viability assay, T47D; format: cell-based, human; conditions: for IC50: Homo sapiens, T47D
Procedure: as §1

MDA-MB-231 = test: MTT cell viability assay, MDA-MB-231; format: cell-based, human; conditions: for IC50: Homo sapiens
Procedure: MTT assays were performed as previously described. Cell numbers plated differed depending on each incubation time: MDA-MB-231 5000 c/w, MCF-7 5000 c/w (72 h) and 3000 c/w (120 h), T-47D 10,000 c/w (72 h) and 5000 c/w /120 h). After incubation time, medium was replaced by MTT (solution of 5 mg/mL 3-(4,5-dimethylthiazol-2-yl)-2,5-diphenyl-tetrazoliumbromidin in phosphate buffered saline, Serva, Heidelberg, Germany). After 10 min (MCF-7), 20 min (MDA-MB-231), and 30 min (T47D) and dissolving in DMSO (VWR, Langenfeld, Germany), absorbance was measured at 544 nm and 690 nm in a FLUOstar microplate reader (BMG LabTech, Offenburg, Germany).

MCF-7 [3] = test: Cell proliferation by counting Hoechst 33342-stained nuclei, MCF-7; format: cell-based, human; conditions: 1 µM, 72 h
Procedure: (§2) Figure 3 Cell proliferation of MCF-7 (a) and T47D cells (b) measured via Hoechst 33342 staining. […] Shown is one representative experiment out of a series of at least three experiments each performed with 3 replicates. Data are mean ± SD. Statistical comparison was performed using a t-test. Levels of significance: ** (p ≤ 0.01); **** (p ≤ 0.0001). Exe = exemestane. (R)-LA = (R)-α-lipoic acid.

T47D [4] = test: Cell proliferation by counting Hoechst 33342-stained nuclei, T47D; format: cell-based, human; conditions: 1 µM, 72 h
Procedure: as §2

MCF-7 [5] = test: Long-term (10 days) live/dead proliferation assay, calcein AM and Hoechst 33342, MCF-7; format: cell-based, human; conditions: 1 µM exemestane, 1 mM (R)-α-lipoic acid
Procedure: (§3) Cells were seeded on day one in 96-well plates. […] Then, cells were stained with calcein AM (Millipore Corporation, Billerica, MA, USA) and Hoechst 33342 (Tocris Bioscience, Bristol, UK) for 30 min and fluorescence images monitored by Leica DMi8 Thunder Imager (Leica Microsystems CMS GmbH, Wetzlar, Germany). Five images per well were monitored randomly. Calcein AM- and Hoechst 33342-stained area of the images (i.e., live proliferating cells) were evaluated.

T47D [6] = test: Long-term (10 days) live/dead proliferation assay, calcein AM and Hoechst 33342, T47D; format: cell-based, human; conditions: 1 µM exemestane, 1 mM (R)-α-lipoic acid
Procedure: as §3

[7] = test system: caspase 3/7 in MCF-7 cells; test: Caspase 3/7 activation assay, MCF-7; format: cell-based, human; conditions: 24 h; 1 µM exemestane, 0.5 mM or 1 mM (R)-α-lipoic acid
Procedure: (§4) To analyze the compound-induced activation of capases 3 and 7, the CellEvent caspase 3/7 green detection reagent (Thermo Scientific, Wesel, Germany) was used according to the manufacturer’s instructions. […] After 24 h incubation, medium was removed, and cells were stained with 50 µL of CellEvent caspase 3/7 green detection reagent (2 µM in PBS supplemented with 5% heat-inactivated FBS). Cells were incubated for 30 min at 37 °C in a humidified incubator before imaging by using the Thermo Fisher ArrayScan XTI high content screening (HCS) system with a 10× magnification (Thermo Scientific). Hoechst 33342 was added for nuclei staining.

[8] = test system: caspase 3/7 in T47D cells; test: Caspase 3/7 activation assay, T47D; format: cell-based, human; conditions: 24 h; 1 µM exemestane, 0.5 mM or 1 mM (R)-α-lipoic acid
Procedure: as §4

MCF-7 [9] = test: Immunoblotting, MCF-7; format: cell-based, human; conditions: 48 h; 1 mM (R)-α-lipoic acid, 1 µM exemestane
Procedure: (§5) A quantity of 20 or 40 µg of total protein as well as, from PageRuler Prestained Protein Ladder, 10–180 kDA (Thermo Scientific, Wesel, Germany), were resolved by SDS-Page (12% polyacrylamide gel) and transferred to polyvinylidene fluoride membrane (Millipore Corporation, Billerica, MA, USA). Blots were incubated with primary antibodies against acetylated a -tubulin (Cat. No. sc-23950), a -tubulin (Cat. No. sc-8035) (Santa Cruz Biotechnology, Heidelberg, Germany), acetyl histone h3 (Cat. No. 39140) and histone H3 (Cat. No. NB100-1669), ß-actine (Cat. No. sc-47778), p21 (AF1047), c-myk (Cat. No. MAB3696), APAF1 (Cat. No. MAB868), BIM (Cat. No. NBP1-76936), FOXO1 (Cat. No. C29H4), BCL-2 (Cat. No. AF810), and survivin (Cat. No. AF886). After another one-hour incubation with the appropriate HRP-conjugated secondary antibody, proteins were visualized by Intas Imager (Intas, Göttingen, Germany) using luminol reagent (Santa Cruz Biotechnology, Heidelberg, Germany).

T47D [10] = test: Immunoblotting, T47D; format: cell-based, human; conditions: 48 h; 1 mM (R)-α-lipoic acid, 1 µM exemestane
Procedure: as §5

MCF-7 cells = test system: MCF-7 cells; design: method as in PMID 25738757; conditions: ref [30]; read-out: IC50 in MCF-7 cells, literature; cited from earlier work

IC50 (MCF-7 [1]; MCF7, 72 h, read-out: IC50 MCF-7, 72 h MTT assay): 29.1 ± 1.3 µM | IC50 (MCF-7 [1]; MCF7, 72 h, read-out: IC50 of exemestane, MCF-7 (Figure 2a)): 42.6 µM | IC50 (MCF-7 [1]; MCF7, 120 h, read-out: IC50 of exemestane, MCF-7 (Figure 4a)): 16.9 µM | IC50 (MCF-7 [1]; MCF7, 120 h, IC50 ± SEM, read-out: IC50 MCF-7, 120 h MTT assay): 16.1 ± 0.84 µM | IC50 (T47D [2]; 72 h, read-out: IC50 T-47D, 72 h MTT assay): 50.6 ± 2.04 µM | IC50 (T47D [2]; 72 h, read-out: IC50 of exemestane, T-47D (Figure 2b)): 39.2 µM | IC50 (T47D [2]; 120 h, read-out: IC50 of exemestane, T-47D (Figure 4b)): 24.7 µM | IC50 (T47D [2]; 120 h, IC50 ± SEM, read-out: IC50 T-47D, 120 h MTT assay): 28.7 ± 0.75 µM | IC50 (MDA-MB-231; MDA-MB-231, 72 h, read-out: IC50 MDA-MB-231, 72 h MTT assay): 89.4 ± 2.86 µM | IC50 (MDA-MB-231; MDA-MB-231, 120 h, IC50 ± SEM, read-out: IC50 MDA-MB-231, 120 h MTT assay): 53.3 ± 3.62 µM
Compound: C=C1C[C@@H]2[C@H](CC[C@]3(C)C(=O)CC[C@@H]23)[C@@]2(C)C=CC(=O)C=C12 [exemestane]
inhibition of cell viability, MCF-7 (MCF-7 [1]; 1 µM alone, 120 h MTT): 10.2% | increase in potency by prolongation of incubation time, MCF-7 (MCF-7 [1]; 120 h versus 72 h MTT): 1.8 fold | inhibition of cell viability, T47D (T47D [2]; 1 µM alone, 120 h MTT): no | increase in potency by prolongation of incubation time, T47D (T47D [2]; 120 h versus 72 h MTT): 1.8 fold | less potent in MDA-MB-231 compared to MCF-7 (MDA-MB-231; 72 h MTT IC50 ratio): 3 fold | less potent in MDA-MB-231 compared to T47D (MDA-MB-231; 72 h MTT IC50 ratio): 1.8 fold | increase in potency by prolongation of incubation time, MDA-MB-231 (MDA-MB-231; 120 h versus 72 h MTT): 1.7 fold | decrease of the number of nuclei, MCF-7 (MCF-7 [3]): around 37% | decrease of the number of nuclei, T47D (T47D [4]): around 37% | proliferation and doubling time over 10 days, MCF-7 (MCF-7 [5]): difference between the untreated control and 1 µM exemestane is small | proliferation and doubling time over 10 days, T47D (T47D [6]): doubling time was not different between exemestane treatment and untreated condition | caspase 3/7 activation, MCF-7 [7]: no caspase 3/7 activation | caspase 3/7 activation, T47D [8]: no caspase 3/7 activation | expression of survivin and c-myk, MCF-7 (MCF-7 [9]): not affected | expression of survivin and c-myk, T47D (T47D [10]): not affected | IC50 (MCF-7 cells): 30 µM

From paper PMC11313180 (International Journal of Molecular Sciences, 2024)
